# Key:
# [1] = Antiproliferative activity against HEK293T cells assessed as reduction in cell growth; assay type: toxicity, cell-based, HEK-293T; details: human
# Calu-1 = assay: Antiproliferative activity against human Calu-1 cells assessed as inhibition of cell growth incubated for 24 hrs by MTT assay; assay type: functional, cell-based; details: Calu-1, 24 h
# [2] = PROTAC activity at GPX4/E3 ligase in human HT-1080 cells assessed as degradation of GPX4 protein incubated for 24 hrs by Western blotting analysis; assay type: cell-based; details: HT-1080, 24 h
# DU-145 = assay: Antiproliferative activity against human DU-145 cells assessed as cell growth inhibition by SRB assay; assay type: functional, cell-based
# MDA-MB-231 = assay: Antiproliferative activity against human MDA-MB-231 cells assessed as reduction in cell viability after 48 hrs by SRB assay; assay type: functional, cell-based; details: MDA-MB-231, 48 h
# 786-0 = assay: Antiproliferative activity against human 786-0 cells assessed as cell growth inhibition measured for 48 hrs by SRB assay; assay type: functional, cell-based; details: 786-0, 48 h
Structure (SMILES),IC50 [1] [nM],IC50 (Calu-1) [nM],DC50 [2] [nM],IC50 (DU-145) [nM],IC50 (MDA-MB-231) [nM],IC50 (786-0) [nM]
COC(=O)c1ccc([C@H]2c3[nH]c4ccccc4c3C[C@H](C(=O)OC)N2C(=O)CCl)cc1,310,,,,,
O=C1CCC(N2C(=O)c3cccc(NCCCCN(C(=O)CCl)C(C(=O)NCc4ccccc4)c4cccs4)c3C2=O)C(=O)N1 (centres undefined),,860,130,,,
O=C1CCC(N2C(=O)c3cccc(NCCOCCOCCOCCN(C(=O)CCl)C(C(=O)NCc4ccccc4)c4cccs4)c3C2=O)C(=O)N1 (centres undefined),,2930,210,,,
Cc1onc(C(=O)N2CCN(C(c3ccc(Cl)cc3)c3ccc(OCCOCCOCC(=O)NCC45CC6CC(CC(C6)C4)C5)cc3)CC2)c1[N+](=O)[O-] (centres undefined),,,57,92,31,125
